The supplement of paper PMC10307832

Key:
Test in all cases: relative viability (nuclei count vs DMSO), 5 days (fraction); higher = more cells survive
Bleomycin + Lapatinib = compound: CC1=C(N=C(N=C1N)[C@H](CC(=O)N)NC[C@@H](C(=O)N)N)C(=O)N[C@@H]([C@H](C2=CN=CN2)OC3C(C(C(C(O3)CO)O)O)OC4C(C(C(C(O4)CO)O)OC(=O)N)O)C(=O)N[C@H](C)[C@H]([C@H](C)C(=O)N[C@@H]([C@@H](C)O)C(=O)NCCC5=NC(=CS5)C6=NC(=CS6)C(=O)NCCC[S+](C)C)O [Bleomycin] + CS(=O)(=O)CCNCc1ccc(-c2ccc3ncnc(Nc4ccc(OCc5cccc(F)c5)c(Cl)c4)c3c2)o1 [Lapatinib] (partner 2 µM); details: main component drawn
How it was run: (§1)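 Each reported value is a median over duplicate plates. It expresses relative viability: treated-well nuclei count divided by vehicle-well nuclei count. Lung cancer cell lines in 1536-well plates were dosed by pin tool a day after seeding, alone with one drug or with a fixed anchor-drug dose plus five library-drug doses (not always all listed) in √10 steps, and nuclei were counted after 5 days.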

Etoposide + Olaparib = compound: COc1cc([C@@H]2c3cc4c(cc3[C@@H](O[C@@H]3O[C@@H]5CO[C@@H](C)O[C@H]5[C@H](O)[C@H]3O)[C@H]3COC(=O)[C@H]23)OCO4)cc(OC)c1O [Etoposide] + O=C(c1cc(Cc2n[nH]c(=O)c3ccccc23)ccc1F)N1CCN(C(=O)C2CC2)CC1 [Olaparib] (partner 8 µM)
How it was run: as §1

Bleomycin + Dasatinib = compound: CC1=C(N=C(N=C1N)[C@H](CC(=O)N)NC[C@@H](C(=O)N)N)C(=O)N[C@@H]([C@H](C2=CN=CN2)OC3C(C(C(C(O3)CO)O)O)OC4C(C(C(C(O4)CO)O)OC(=O)N)O)C(=O)N[C@H](C)[C@H]([C@H](C)C(=O)N[C@@H]([C@@H](C)O)C(=O)NCCC5=NC(=CS5)C6=NC(=CS6)C(=O)NCCC[S+](C)C)O [Bleomycin] + Cc1nc(Nc2ncc(C(=O)Nc3c(C)cccc3Cl)s2)cc(N2CCN(CCO)CC2)n1 [Dasatinib] (partner 0.075 µM); details: main component drawn
How it was run: as §1

Etoposide + Crizotinib = compound: COc1cc([C@@H]2c3cc4c(cc3[C@@H](O[C@@H]3O[C@@H]5CO[C@@H](C)O[C@H]5[C@H](O)[C@H]3O)[C@H]3COC(=O)[C@H]23)OCO4)cc(OC)c1O [Etoposide] + C[C@@H](Oc1cc(-c2cnn(C3CCNCC3)c2)cnc1N)c1c(Cl)ccc(F)c1Cl [Crizotinib] (partner 1 µM)
How it was run: as §1

Cell Line | relative viability (Bleomycin + Lapatinib; first compound 0.01 µM) | relative viability (Bleomycin + Lapatinib; first compound 0.03162 µM) | relative viability (Bleomycin + Lapatinib; first compound 0.1 µM) | relative viability (Bleomycin + Lapatinib; first compound 0.3162 µM) | relative viability (Bleomycin + Lapatinib; first compound 1 µM) | relative viability (Etoposide + Olaparib; first compound 0.01 µM) | relative viability (Etoposide + Olaparib; first compound 0.03162 µM) | relative viability (Etoposide + Olaparib; first compound 0.1 µM) | relative viability (Etoposide + Olaparib; first compound 0.3162 µM) | relative viability (Etoposide + Olaparib; first compound 1 µM) | relative viability (Bleomycin + Dasatinib; first compound 0.01 µM) | relative viability (Bleomycin + Dasatinib; first compound 0.03162 µM) | relative viability (Bleomycin + Dasatinib; first compound 0.1 µM) | relative viability (Bleomycin + Dasatinib; first compound 0.3162 µM) | relative viability (Bleomycin + Dasatinib; first compound 1 µM) | relative viability (Etoposide + Crizotinib; first compound 0.01 µM) | relative viability (Etoposide + Crizotinib; first compound 0.03162 µM) | relative viability (Etoposide + Crizotinib; first compound 0.1 µM) | relative viability (Etoposide + Crizotinib; first compound 0.3162 µM) | relative viability (Etoposide + Crizotinib; first compound 1 µM)
LXF-289 | 0.807 | 0.884 | 0.635 | 0.206 | 0.179 | 1.1 | 1.07 | 0.954 | 0.234 | 0.1 | 0.19 | 0.228 | 0.197 | 0.077 | 0.0555 | 0.851 | 0.824 | 0.836 | 0.511 | 0.251
NCI-H520 | 0.715 | 0.79 | 0.833 | 0.54 | 0.43 | 0.296 | 0.328 | 0.437 | 0.293 | 0.225 | 0.222 | 0.217 | 0.234 | 0.198 | 0.154 | 0.759 | 0.729 | 0.944 | 0.725 | 0.629
NCI-H1944 | 0.533 | 0.41 | 0.355 | 0.242 | 0.151 | 0.378 | 0.417 | 0.305 | 0.265 | 0.197 | 0.173 | 0.177 | 0.159 | 0.115 | 0.106 | 1.03 | 1.1 | 0.763 | 0.641 | 0.258
NCI-H2009 | 0.808 | 0.892 | 0.92 | 0.379 | 0.365 | 0.64 | 0.627 | 0.692 | 0.45 | 0.275 | 0.298 | 0.297 | 0.311 | 0.21 | 0.196 | 1.02 | 0.994 | 1.08 | 0.713 | 0.329
201T | 1 | 0.958 | 0.961 | 0.916 | 0.78 | 0.818 | 0.804 | 0.771 | 0.633 | 0.384 | 0.527 | 0.529 | 0.546 | 0.444 | 0.463 | 1.02 | 1.03 | 0.975 | 0.898 | 0.678
NCI-H2347 | 0.836 | 0.974 | 0.966 | 0.612 | 0.493 | 0.55 | 0.543 | 0.58 | 0.353 | 0.411 | 0.258 | 0.295 | 0.266 | 0.169 | 0.23 | 0.677 | 0.455 | 0.408 | 0.384 | 0.339
LOU-NH91 | 0.679 | 0.609 | 0.51 | 0.361 | 0.298 | 0.893 | 0.905 | 0.824 | 0.651 | 0.383 | 0.562 | 0.391 | 0.448 | 0.306 | 0.251 | 0.74 | 0.767 | 0.701 | 0.632 | 0.438
NCI-H2085 | 0.689 | 0.689 | 0.6 | 0.437 | 0.449 | 0.755 | 0.731 | 0.746 | 0.375 | 0.3 | 0.262 | 0.221 | 0.231 | 0.212 | 0.209 | 0.91 | 0.871 | 0.827 | 0.5 | 0.326
COR-L23 | 0.707 | 0.776 | 0.294 | 0.14 | 0.115 | 0.368 | 0.294 | 0.375 | 0.223 | 0.169 | 0.394 | 0.276 | 0.215 | 0.0981 | 0.0987 | 0.548 | 0.68 | 0.802 | 0.45 | 0.198
BEN | 0.72 | 0.709 | 0.913 | 0.571 | 0.542 | 0.938 | 1.01 | – | 0.936 | 0.672 | 0.327 | 0.342 | 0.341 | 0.273 | 0.249 | 0.701 | 0.827 | – | 0.828 | 0.693
LK-2 | 0.66 | 0.488 | 0.542 | 0.261 | 0.248 | 0.618 | 0.81 | 0.511 | 0.287 | 0.205 | 0.209 | 0.193 | 0.248 | 0.176 | 0.169 | 0.264 | 0.265 | 0.263 | 0.219 | 0.23
NCI-H596 | 0.852 | 0.742 | 0.547 | 0.416 | 0.452 | 0.64 | 0.698 | 0.724 | 0.537 | 0.561 | 0.548 | 0.531 | 0.395 | 0.24 | 0.221 | 1.02 | 0.96 | – | 0.808 | 0.681
ABC-1 | 1.01 | 1.03 | 1.23 | 1.01 | 0.961 | 0.79 | 0.873 | 0.663 | 0.607 | 0.443 | 0.516 | 0.53 | 0.61 | 0.31 | 0.285 | 0.791 | 0.965 | 0.892 | 0.395 | 0.179
NCI-H1666 | 0.607 | 0.417 | 0.344 | 0.247 | 0.288 | 0.702 | 0.642 | 0.758 | 0.529 | 0.497 | 0.658 | 0.521 | 0.565 | 0.374 | 0.317 | 0.906 | 0.904 | 0.68 | 0.36 | 0.301
NCI-H1993 | 0.732 | 0.736 | 0.754 | 0.656 | 0.609 | – | 0.884 | 0.777 | 0.658 | 0.54 | 0.548 | 0.604 | 0.597 | 0.462 | 0.464 | 0.758 | 0.856 | 0.734 | 0.712 | 0.473
NCI-H1975 | 0.657 | 0.551 | 0.542 | 0.25 | 0.213 | 0.688 | 1.02 | 0.881 | 0.487 | 0.252 | 0.34 | 0.343 | 0.287 | 0.13 | 0.115 | 0.98 | 1.06 | 1.05 | 0.668 | 0.249
